These results are taken from article PMC8198214, “Synthesis and Biological Evaluation of Spirocyclic Chromane Derivatives as a Potential Treatment of Prostate Cancer” (Molecules, 2021).

Read-outs that look alike come from different tables or passages of the source.

Data set [1] can be described thus: Pharmacokinetics in male Balb/C mice (IV and PO). It is filed as in vivo. The settings on record: mouse, plasma; for clearance: n = 3, read-out: CL (clearance) (converted); for Vd: n = 3, read-out: V ss (0–24 h) (volume of distribution at steady state); for bioavailability: PO. 10 mg/kg vs IV. 1 mg/kg, n = 3, read-out: F (oral bioavailability); for Cmax: n = 3, Table 3, read-out: Cmax (maximum concentration observed). How it is done: Pharmacokinetic experiments of test compounds were performed in male Balb/C mice similarly to our previous work. The mice were randomly assigned to two groups and were administrated the test compound orally and intravenously, respectively. The test compounds were prepared into 0.5 mg/mL oral solution with 10%PG, 10% ethanol, 10% solutol and 70% normal saline, or 0.1 mg/mL injection solution with 2% PG, 2% ethanol, 2% solutol and 94% normal saline. After intravenous or oral administration, blood was collected from the orbital venous plexus into heparinized EP tube (0.6 mL) at 5, 15, 30 min, 1, 2, 6, 10, and 24 h, temporarily placed on crushed ice. Certain processing was performed on blood samples and testing samples were sent to LC-MS/MS for analysis.

Another data set has as its system 22Rv1 cells. The experiment in a line: 22Rv1 cell viability (CCK-8) antiproliferation assay. The settings on record: for IC50: 22Rv1 cells, means of two independent experiments (n = 2). The class given is cell-based, human. How it is done:
The 22Rv1 prostate cancer cell line in this study was purchased from KeyGEN Biotech Co. Ltd. (Nanjing, Jiangsu, China ). The cells were cultured in RPMI 1640 medium and maintained at 37 °C in a 5% CO2 incubator. For the cell viability assay, the cell slurry was diluted to required volume at a density of 80,000 cells/mL. Then, 100 μL the cell slurry was seeded in each well of the 96-well plate. The cells were incubated for 72 h at 37 °C, 5% CO2 under humidified condition. The reference and test compounds solution (200×) were prepared with DMSO and were diluted from 200× to 1× with culture medium (RPMI 1640 medium without phenol red and containing 10% fetal calf serum, penicillin (100U/mL), streptomycin (100 μg/mL) and 0.1 nM DHT). The previous culture medium was removed and 200 μL/well of the compound solution (1×) was added to assay plate (final conc: 1×). Then the cells were incubated at 37 °C, 5% CO2 under humidified conditions. 5 Days later, the CCK-8 assay reagent was equilibrated at room temperature for 30 min prior to use. CCK-8 was mixed with fresh medium at a ratio of 1:10 and 100 μL of the diluted CCK8 reagent was added to each well and the plates were incubated for 4.5 h at 37 °C. Finally, absorbance value (OD value) was read on plate reader. GraphPad Prism v5.0 software was used to process data for IC50.

[2] abbreviates: IV. 1 mg/kg, n = 3, read-out: AUC(0–24h).
[3] abbreviates: IV. 1 mg/kg, n = 3, read-out: T1/2 (half-life) (converted).
[4] abbreviates: PO. 10 mg/kg, n = 3, Table 3, read-out: AUC (0–24 h).
Setting [5] is: PO. 10 mg/kg, n = 3, Table 3, read-out: T1/2 (converted).

In general, bioavailability refers to dose-corrected exposure relative to a reference, in per cent. The term IC50 denotes the concentration at which inhibition is half-maximal. Read a high IC50 as weaker potency. As to `CNC(=O)Cn1cc(-c2ccc3c(c2)CCC32OC(=O)N(CC(=O)N(Cc3ccc(F)cc3)[C@H]3CCOc4ccccc43)C2=O)cn1` (stereo partly drawn) [B16, N-((S)-chroman-4-yl)-N-(4-fluorobenzyl)-2-(5-(1-(2-(methylamino)-2-oxoethyl)-1H-pyrazol-4-yl)-2′,4′-dioxo-2,3-dihydrospiro[indene-1,5′-oxazolidin]-3′-yl) acetamide], the results for the AUC(0-t) in data set [1] (setting [2]) and in data set [1] (setting [4]) were 536 ± 18.1 ng·h/mL and 1780 ± 158 ng·h/mL, respectively. Further, the clearance in data set [1] (IV. 1 mg/kg) was 30 mL/min/kg. In addition, the half-life in data set [1] (setting [3]) was 0.5 h; in data set [1] (setting [5]) it was 1.6 ± 0.3 h. Besides, the Vd in data set [1] (IV. 1 mg/kg) came out at 1 ± 0.1 L/kg. Moreover, the bioavailability in data set [1] came to 33.2 ± 3%. Moreover, the Cmax in data set [1] (PO. 10 mg/kg) was 759 ± 76.5 ng/mL. Moreover, in the data set on 22Rv1 cells (22Rv1 cell antiproliferation), the “fold more potency than A-485” value was found to be 2 fold. The same compound gave a half-maximal inhibitory concentration (IC50) with 22Rv1 cells (Homo sapiens, Table 2) of 96 nM.

Regarding `CNC(=O)Cn1cc(-c2ccc3c(c2)CCC32OC(=O)N(CC(=O)N(Cc3ccc(F)cc3)[C@@H]3CCc4ncccc43)C2=O)cn1` (stereo partly drawn) [B11, N-((R)-6,7-Dihydro-5H-cyclopenta[b]pyridin-5-yl)-N-(4-fluorobenzyl)-2-(5-(1-(2-(methylamino)-2-oxoethyl)-1H-pyrazol-4-yl)-2′,4′-dioxo-2,3-dihydrospiro[indene-1,5′-oxazolidin]-3′-yl)acetamide], the “fold increased potency versus B10” value in the data set with 22Rv1 cells (22Rv1 cell antiproliferation) is listed as 5 fold. This compound displayed an IC50 in the data set on 22Rv1 cells (Homo sapiens, Table 2) of 340 nM.

In turn, `CNC(=O)Cn1cc(-c2ccc3c(c2)CCC32OC(=O)N(CC(=O)N(Cc3ccc(F)cc3)[C@H]3CCCc4ccccc43)C2=O)cn1` (stereo partly drawn) [B15, N-(4-fluorobenzyl)-2-(5-(1-(2-(methylamino)-2-oxoethyl)-1H-pyrazol-4-yl)-2′,4′-dioxo-2,3-dihydrospiro[indene-1,5′-oxazolidin]-3′-yl)-N-((S)-1,2,3,4-tetrahydronaphthalen-1-yl)acetamide] showed a concentration for half-maximal inhibition (IC50) in the data set with 22Rv1 cells (Homo sapiens, Table 2) of 450 nM.

In the data set with 22Rv1 cells (Homo sapiens, Table 2), `CNC(=O)Cn1cc(-c2ccc3c(c2)CCC32OC(=O)N(CC(=O)N(Cc3ccc(F)cn3)[C@@H]3CCc4cccnc43)C2=O)cn1` (stereo partly drawn) [B13, N-((R)-6,7-Dihydro-5H-cyclopenta[b]pyridin-7-yl)-N-((5-fluoropyridin-2-yl)methyl)-2-(5-(1-(2-(methylamino)-2-oxoethyl)-1H-pyrazol-4-yl)-2′,4′-dioxo-2,3-dihydrospiro[indene-1,5′-oxazolidin]-3′-yl)acetamide] yielded an IC50 of 3470 nM.

In the case of `CN1C2CCC1CC(N(Cc1ccc(F)cc1)C(=O)CN1C(=O)O[C@@]3(CCc4cc(-c5cnn(C)c5)ccc43)C1=O)C2` (stereo partly drawn) [B2, N-(4-Fluorobenzyl)-2-((R)-5-(1-methyl-1H-pyrazol-4-yl)-2′,4′-dioxo-2,3-dihydrospiro[indene-1,5′-oxazolidin]-3′-yl)-N-(8-methyl-8-azabicyclo[3.2.1]octan-3-yl)acetamide], the IC50 with 22Rv1 cells (Homo sapiens, Table 2) stood at 37600 nM.

The compound `CC(C)(O)Cn1cc(-c2ccc3c(c2)CCC32OC(=O)N(CC(=O)N(Cc3ccc(F)cc3)[C@H]3CCc4ccccc43)C2=O)cn1` (stereo partly drawn) [B6, N-((S)-2,3-Dihydro-1H-inden-1-yl)-N-(4-fluorobenzyl)-2-(5-(1-(2-hydroxy-2-methylpropyl)-1H-pyrazol-4-yl)-2′,4′-dioxo-2,3-dihydrospiro[indene-1,5′-oxazolidin]-3′-yl)acetamide] showed a half-maximal inhibitory concentration (IC50) in the data set on 22Rv1 cells (Homo sapiens, Table 2) of 431 nM.

On to `C[C@H](N(Cc1ccc2c(c1)OC(F)(F)O2)C(=O)CN1C(=O)O[C@@]2(CCc3cc(-c4cnn(C)c4)ccc32)C1=O)C(F)(F)F` [B1, N-((2,2-Difluorobenzo[d][1,3]dioxol-5-yl)methyl)-2-((R)-5-(1-methyl-1H-pyrazol-4-yl)-2′,4′-dioxo-2,3-dihydrospiro[indene-1,5′-oxazolidin]-3′-yl)-N-((S)-1,1,1-trifluoropropan-2-yl)acetamide], for which the “fold less potency than A-485” value in the data set with 22Rv1 cells (22Rv1 cell antiproliferation) is on record as 10 fold. In the data set on 22Rv1 cells (Homo sapiens, Table 2), this compound returned an IC50 of 1370 nM.

As for “N-(4-Fluorobenzyl)-2-(5-(3-methylureido)-2′,5′-dioxo-2,3-dihydrospiro[indene-1,3′-pyrrolidin]-1′-yl)-N-((S)-1,1,1-trifluoropropan-2-yl)acetamide [A8]”, 6410 nM corresponded to half-maximal inhibition with 22Rv1 cells (Table 1) (IC50).

`CNC(=O)Cn1cc(-c2ccc3c(c2)CCC32OC(=O)N(CC(=O)N(Cc3ccc(F)cc3)[C@H]3CCc4cccnc43)C2=O)cn1` (stereo partly drawn) [B8, N-((S)-6,7-Dihydro-5H-cyclopenta[b]pyridin-7-yl)-N-(4-fluorobenzyl)-2-(5-(1-(2-(methylamino)-2-oxoethyl)-1H-pyrazol-4-yl)-2′,4′-dioxo-2,3-dihydrospiro[indene-1,5′-oxazolidin]-3′-yl)acetamide]: the results for the AUC(0-t) in data set [1] (setting [2]) and in data set [1] (setting [4]) were 766 ± 71.2 ng·h/mL and 1660 ± 294 ng·h/mL, respectively. The clearance in data set [1] (IV. 1 mg/kg) was 18.3 mL/min/kg. Also, the half-life was 17 ± 4.9 h in data set [1] (setting [3]) and 23.9 ± 3.6 h in data set [1] (setting [5]). The Vd in data set [1] (IV. 1 mg/kg) turned out to be 13.2 ± 4.2 L/kg. For the same compound, the bioavailability in data set [1] was 21.6 ± 3.8%. Further, the Cmax in data set [1] (PO. 10 mg/kg) was determined as 878 ± 94.3 ng/mL. For the same compound, in the data set on 22Rv1 cells (Homo sapiens, Table 2), the IC50 turned out to be 153 nM.

Regarding “N-(4-Fluorobenzyl)-2-(3-(1-methyl-1H-pyrazol-4-yl)-2′,4′-dioxo-5,6-dihydrospiro [cyclopenta[c]pyridine-7,5′-oxazolidin]-3′-yl)-N-((S)-1,1,1-trifluoropropan-2-yl)acetamide [A6]”, in the data set on 22Rv1 cells (Table 1), 27000 nM corresponded to half-maximal inhibition (IC50).

Take `Cn1cc(-c2ccc3c(c2)CCC32OC(=O)N(CC(=O)N(Cc3ccc(F)cc3)[C@@H]3CN4CCC3CC4)C2=O)cn1` (stereo partly drawn) [B3, N-(4-Fluorobenzyl)-2-(5-(1-methyl-1H-pyrazol-4-yl)-2′,4′-dioxo-2,3-dihydrospiro [indene-1,5′-oxazolidin]-3′-yl)-N-((S)-quinuclidin-3-yl)acetamide]: the half-inhibitory concentration (IC50) with 22Rv1 cells (Homo sapiens, Table 2) was more than 25000 nM.

Compound `CNC(=O)Nc1ccc2c(c1)CCC21OC(=O)N(CC(=O)N(Cc2ccc(F)cc2)[C@H]2CCc3ccccc32)C1=O` (stereo partly drawn) [B5, N-((S)-2,3-Dihydro-1H-inden-1-yl)-N-(4-fluorobenzyl)-2-(5-(3-methylureido)-2′,4′-dioxo-2,3-dihydrospiro[indene-1,5′-oxazolidin]-3′-yl)acetamide] showed a concentration for half-maximal inhibition (IC50) with 22Rv1 cells (Homo sapiens, Table 2) of 406 nM.

For the compound “N-(4-Fluorobenzyl)-2-(3-(1-(2-(methylamino)-2-oxoethyl)-1H-pyrazol-4-yl)-2′,4′-dioxo-5,6-dihydrospiro[cyclopenta[b]pyridine-7,5′-oxazolidin]-3′-yl)-N-((S)-1,1,1-trifluoropropan-2-yl)acetamide [A5]”, the half-inhibitory concentration (IC50) with 22Rv1 cells (Table 1) amounted to 16100 nM.

For the compound “2-(5′-(3-Cyclopropylureido)-2′′,4′′-dioxo-2′H-dispiro[cyclopropane-1,3′-indene-1′,5′′-oxazolidin]-3′′-yl)-N-(4-fluorobenzyl)-N-((S)-1,1,1-trifluoropropan-2-yl)acetamide [A3]”, the half-maximal inhibitory concentration (IC50) with 22Rv1 cells (Table 1) amounted to 798 nM.

In the data set on 22Rv1 cells (Table 1), “N-(4-Fluorobenzyl)-2-(2-methyl-2′,4′-dioxo-2,4,8,9-tetrahydrospiro[cyclopenta [6,7]chromeno [3,4-c]pyrazole-7,5′-oxazolidin]-3′-yl)-N-((S)-1,1,1-trifluoropropan-2-yl)acetamide [A4]” yielded an IC50 of more than 100000 nM.

In the data set on 22Rv1 cells (Table 1), “N-(4-Fluorobenzyl)-2-(3-(1-(2-(methylamino)-2-oxoethyl)-1H-pyrazol-4-yl)-2′,4′-dioxospiro[fluorene-9,5′-oxazolidin]-3′-yl)-N-((S)-1,1,1-trifluoropropan-2-yl)acetamide [A1]” returned an IC50 of more than 100000 nM.
